Assay results as given in patent publication US8916526B2, “Flavanone derivative” (National University Corporation Okayama University, priority 2009, dated 2014).
≈ marks a conversion by molar mass, not a printed value. Where two headings read alike, the source gives them in different places.

Experiments:
MRSA N315 = assay: In vitro infectivity assay (MIC), broth dilution, Exp. Ex. 1-1; type: cell-based, Staphylococcus aureus; conditions: for MIC: Staphylococcus aureus, read-out: MIC MRSA N315
Experimental: (§1) The antibacterial activities were measured based on broth dilution techniques of international standards (Clinical Laboratory Standards Institute: CLSI). The activities were shown by minimum inhibitory concentrations (MICs) determined by inoculating the above-mentioned strains at a concentration of about 10^5 […] into Mueller-Hinton broth (manufactured by Difco) containing 0.85% NaCl in 96-well microplates and incubating the plates at 35° C. for 24 hours. Measurement was carried out three times.
(§2) The antibacterial activities of the compounds of the present invention against various strains such as methicillin-resistant Staphylococcus aureus (MRSA), vancomycin intermediate-resistant Staphylococcus aureus (VISA), methicillin-sensitive Staphylococcus aureus (MSSA), and vancomycin-resistant enterococci (VRE) were examined. Of the bacteria used in MIC measurement in this test example, clinical bacteria of MRSA (OM481 strain and OM584 strain) were supplied from Okayama University Hospital (Japan). An MRSA strain N315, a vancomycin intermediate-resistant Staphylococcus aureus (VISA) strain Mu50, and a methicillin-sensitive Staphylococcus aureus (MSSA) strain FDA 209P were used as controls. Vancomycin-resistant enterococcus (VRE) strains NCTC 12201 and FN-1 were supplied from the National Institute of Infectious Disease (Japan).

MRSA OM481 = assay: as above; type: cell-based, Staphylococcus aureus; conditions: for MIC: Staphylococcus aureus, read-out: MIC MRSA OM481
Experimental: as §1, §2

MRSA OM58 = assay: as above; type: cell-based, Staphylococcus aureus; conditions: for MIC: Staphylococcus aureus, read-out: MIC MRSA OM58
Experimental: as §1, §2

MSSA FDA 209P = assay: as above; type: cell-based, Staphylococcus aureus; conditions: for MIC: Staphylococcus aureus, read-out: MIC MSS 209P
Experimental: as §1, §2

VISA Mu50 = assay: as above; type: cell-based, Staphylococcus aureus; conditions: for MIC: Staphylococcus aureus, read-out: MIC VISA Mu50
Experimental: as §1, §2

VRE FN-1 = assay: as above; type: cell-based, enterococci; conditions: for MIC: Enterococcus, read-out: MIC VRE FN-1
Experimental: as §1, §2

VRE NCTC12201 = assay: as above; type: cell-based, enterococci; conditions: for MIC: Enterococcus, read-out: MIC VRE NCTC12201
Experimental: as §1, §2

[1] = molecular target: T1, DNA gyrase of Escherichia coli (Escherichia coli, UniProt P0AES4+P0AES6); assay: DNA gyrase inhibition (supercoiling assay kit), Exp. Ex. 1-2; type: biochemical; conditions: for IC50 / Gyrase inhibitory activity IC50: E. coli DNA gyrase supercoiling, relaxed pBR322, 37° C., 30 minutes; for IC50: read-out: Gyrase inhibitory activity IC50 (converted)
T1 construct: purchased John Innes Enterprises #K0001
T1 sequence (P0AES4 whole entry, one chain of several): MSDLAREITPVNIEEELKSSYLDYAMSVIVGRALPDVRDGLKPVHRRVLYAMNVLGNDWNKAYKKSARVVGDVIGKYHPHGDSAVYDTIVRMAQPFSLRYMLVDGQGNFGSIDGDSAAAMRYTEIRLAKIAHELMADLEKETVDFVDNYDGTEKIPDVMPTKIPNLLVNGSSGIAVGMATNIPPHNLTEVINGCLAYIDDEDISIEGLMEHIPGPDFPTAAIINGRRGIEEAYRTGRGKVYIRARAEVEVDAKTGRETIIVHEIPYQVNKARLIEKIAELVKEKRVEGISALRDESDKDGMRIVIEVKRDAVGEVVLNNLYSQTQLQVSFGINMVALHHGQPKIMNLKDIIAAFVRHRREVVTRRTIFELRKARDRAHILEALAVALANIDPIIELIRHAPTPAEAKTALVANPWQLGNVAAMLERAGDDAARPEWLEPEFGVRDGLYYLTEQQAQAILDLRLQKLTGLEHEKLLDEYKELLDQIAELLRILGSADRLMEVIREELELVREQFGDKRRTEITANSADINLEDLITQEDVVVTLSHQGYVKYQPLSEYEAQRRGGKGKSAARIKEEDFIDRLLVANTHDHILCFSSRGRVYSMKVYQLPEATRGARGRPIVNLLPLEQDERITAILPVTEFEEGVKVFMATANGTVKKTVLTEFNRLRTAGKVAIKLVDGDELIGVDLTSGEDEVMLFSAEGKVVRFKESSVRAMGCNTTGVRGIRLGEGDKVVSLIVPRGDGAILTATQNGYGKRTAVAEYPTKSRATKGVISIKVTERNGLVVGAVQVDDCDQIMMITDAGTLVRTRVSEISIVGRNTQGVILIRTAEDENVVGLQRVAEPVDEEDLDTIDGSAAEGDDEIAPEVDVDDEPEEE
Experimental: As a kit for measurement of DNA gyrase of Escherichia coli, a product purchased from John Innes Enterprises (Gyrase Supercoiling assay kit #K0001) was used. Relaxed DNA was modified with gyrase into supercoiled DNA, and reaction products were separated by electrophoresis depending on the sizes of the molecular weights to examine anti-gyrase effects (IC50). One unit (1 U) of DNA gyrase and […] of relaxed pBR322 DNA were added to […] of the reaction solution, and the mixture was allowed to react at 37° C. for 30 minutes in the presence of 35 mM Tris-HCl (pH 7.5), 24 mM KCl, 4 mM MgCl2, 2 mM DTT, 1.8 mM spermidine, 1 mM ATP, 6.5% (w/v) glycerol, and 0.1 mg/ml BSA. The reactions were stopped using […] of a reaction stop solution (40% sucrose, 100 mM Tris-HCl (pH 7.5), 1 mM EDTA, 0.5 mg/ml bromophenol blue).

[2] = system: various strains such as MRSA, VISA, MSSA and VRE; assay: In vitro infectivity assay (MIC), Exp. Ex. 1-1, strains taken together; type: cell-based, Staphylococcus aureus, enterococci; conditions: summary of Table 1
Experimental: as §1, §2

[3] = mouse, in vivo, 10 mg/kg
Experimental: (§4) An acute toxicity test of the compound of the present invention was carried out using ICR mice as experimental animals.

[4] = Acute toxicity evaluation experiment; conditions: ICR mice, observed over 7 days, four mice
Experimental: as §4

[5] = system: Vancomycin intermediate-resistant Staphylococcus aureus Mu50; assay: In vitro infectivity assay (MIC), Exp. Ex. 2-1; type: cell-based; conditions: Staphylococcus aureus, VISA, 24 h, read-out: MIC VISA Mu50
Summary of the method: (§3)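 Broth microdilution per CLSI: strains inoculated at about 10^5 CUF/[…] into Mueller-Hinton broth containing 0.85% NaCl, incubated 35° C for 24 hours. MIC taken as lowest inhibitory concentration; measured three times.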

[6] = system: Vancomycin-resistant enterococci FN-1; assay: In vitro infectivity assay (MIC), Exp. Ex. 2-1; type: cell-based; conditions: Enterococcus, VRE, 24 h, read-out: MIC VRE FN-1
Summary of the method: as §3

[7] = system: Vancomycin-resistant enterococci NCTC 12201; assay: In vitro infectivity assay (MIC), Exp. Ex. 2-1; type: cell-based; conditions: Enterococcus, NCTC 12201 / VRE, 24 h, read-out: MIC VRE NCTC 12201
Summary of the method: as §3

[8] = system: Methicillin sensitive S. aureus 209P; assay: In vitro infectivity assay (MIC), Exp. Ex. 2-1; type: cell-based, Staphylococcus aureus; conditions: Staphylococcus aureus, 209P / MSSA, 24 h, read-out: MIC MSSA 209P
Summary of the method: as §3

[9] = system: Methicillin-resistant S. aureus N315; assay: In vitro infectivity assay (MIC), Exp. Ex. 2-1; type: cell-based, Staphylococcus aureus; conditions: Staphylococcus aureus, MRSA, 24 h, read-out: MIC MRSA N315
Summary of the method: as §3

[10] = system: Methicillin-resistant S. aureus OM481; assay: In vitro infectivity assay (MIC), Exp. Ex. 2-1; type: cell-based, Staphylococcus aureus; conditions: Staphylococcus aureus, MRSA, 24 h, read-out: MIC MRSA OM481
Summary of the method: as §3

[11] = system: Methicillin-resistant S. aureus OM584; assay: In vitro infectivity assay (MIC), Exp. Ex. 2-1; type: cell-based, Staphylococcus aureus; conditions: Staphylococcus aureus, MRSA, 24 h, read-out: MIC MRSA OM584
Summary of the method: as §3

[12] = system: Streptococcus pneumoniae R6; assay: In vitro infectivity assay (MIC), Exp. Ex. 2-1; type: cell-based; conditions: Streptococcus pneumoniae, R6, 24 h, read-out: MIC S. Pneumoniae R6
[13] = system: Methicillin-resistant S. aureus COL; assay: In vitro infectivity assay (MIC), Exp. Ex. 2-1; type: cell-based; conditions: Staphylococcus aureus, MRSA, 24 h, read-out: MIC MRSA COL
[14] = MRSA N315, Mueller-Hinton broth, 35° C., 24 hours
[15] = MRSA OM481, Mueller-Hinton broth, 35° C., 24 hours
[16] = MRSA OM58, Mueller-Hinton broth, 35° C., 24 hours
[17] = MSSA FDA 209P, Mueller-Hinton broth, 35° C., 24 hours
[18] = VISA Mu50, Mueller-Hinton broth, 35° C., 24 hours
[19] = VRE FN-1, Mueller-Hinton broth, 35° C., 24 hours
[20] = VRE NCTC12201, Mueller-Hinton broth, 35° C., 24 hours

Compound	MIC (MRSA N315; [14]) [µg/mL]	MIC (MRSA OM481; [15]) [µg/mL]	MIC (MRSA OM58; [16]) [µg/mL]	MIC (MSSA FDA 209P; [17]) [µg/mL]	MIC (VISA Mu50; [18]) [µg/mL]	MIC (VRE FN-1; [19]) [µg/mL]	MIC (VRE NCTC12201; [20]) [µg/mL]	IC50 [1] [µM]	melting point [°C]	MIC MRSA N315 (MRSA N315; [14]) [µg/mL]	MIC MRSA OM481 (MRSA OM481; [15]) [µg/mL]	MIC MRSA OM58 (MRSA OM58; [16]) [µg/mL]	MIC MSS 209P (MSSA FDA 209P; [17]) [µg/mL]	MIC VISA Mu50 (VISA Mu50; [18]) [µg/mL]	MIC VRE FN-1 (VRE FN-1; [19]) [µg/mL]	MIC VRE NCTC 12201 (VRE NCTC12201; [20]) [µg/mL]	Antibacterial activities against the vancomycin resistant bacteria such as VRE and VISA (in words) [2]	other results
CCCc1ccc(C(=O)O[C@H]2[C@H](Oc3c(-c4ccc(O)c(O)c4)oc4cc(O)cc(O)c4c3=O)O[C@H](CO)[C@@H](O)[C@@H]2OC(=O)c2ccc(CCC)cc2)cc1 [Compound 15f, 2-(3′,4′-Dihydroxy)-5,7-dihydroxy-3-β-D-(2″,3″-di-p-propylbenzoyloxy)glucosyl-4H-chromen-4-one]	8 (≈ 10.6 µM)	32 (≈ 42.3 µM)	32 (≈ 42.3 µM)	8 (≈ 10.6 µM)	16 (≈ 21.1 µM)	8 (≈ 10.6 µM)	8 (≈ 10.6 µM)	13.2	152 to 153									
CCOc1ccc(C(=O)O[C@H]2[C@H](Oc3c(-c4ccc(O)c(O)c4)oc4cc(O)cc(O)c4c3=O)O[C@H](CO)[C@@H](O)[C@@H]2OC(=O)c2ccc(OCC)cc2)cc1 [Compound 15e, 2-(3′,4′-Dihydroxy)-5,7-dihydroxy-3-β-D-(2″,3″-di-p-ethoxybenzoyloxy)glucosyl-4H-chromen-4-one]	8 (≈ 10.5 µM)	32 (≈ 42.1 µM)	32 (≈ 42.1 µM)	8 (≈ 10.5 µM)	16 (≈ 21 µM)	16 (≈ 21 µM)	16 (≈ 21 µM)	10.8	122 to 123									
Cc1ccc(CCC(=O)O[C@H]2[C@H](Oc3c(-c4ccc(O)c(O)c4)oc4cc(O)cc(O)c4c3=O)O[C@H](CO)[C@@H](O)[C@@H]2OC(=O)CCc2ccc(C)cc2)cc1 [Compound 15c, 2-(3′,4′-Dihydroxy)-5,7-dihydroxy-3-β-D-(2″,3″-di-p-methylphenylethylcarboxy)glucosyl-4H-chromen-4-one]										1 (≈ 1.32 µM)	2 (≈ 2.64 µM)	2 (≈ 2.64 µM)	1 (≈ 1.32 µM)	1 (≈ 1.32 µM)	2 (≈ 2.64 µM)	4 (≈ 5.29 µM)	strong antibacterial activities	Gyrase inhibitory activity IC50 [1]: 3.50 µg/mL
O=C(CCc1ccc(F)cc1)O[C@H]1[C@H](Oc2c(-c3ccc(O)c(O)c3)oc3cc(O)cc(O)c3c2=O)O[C@H](CO)[C@@H](O)[C@@H]1OC(=O)CCc1ccc(F)cc1 [Compound 15d, 2-(3′,4′-Dihydroxy)-5,7-dihydroxy-3-β-D-(2″,3″-di-p-flurophenylethylcarboxy)glucosyl-4H-chromen-4-one]										0.25 (≈ 0.327 µM)	2 (≈ 2.62 µM)	2 (≈ 2.62 µM)	0.25 (≈ 0.327 µM)	1 (≈ 1.31 µM)	1 (≈ 1.31 µM)	1 (≈ 1.31 µM)	strong antibacterial activities	Gyrase inhibitory activity IC50 [1]: 0.22 µg/mL; Gyrase inhibitory effect compared with norfloxacin (in words) ([1]; summary of Table 2): inhibitory effect equal to or greater than that of an existing gyrase inhibitor such as norfloxacin; Changes in the body weights [3]: the body weights were slightly reduced from the day after administration, but the body weights of all the four mice were recovered from about day 5 after administration; Mortality ([4]; 10 mg/kg for 4 consecutive days): All the mice were not dead until day 7; Mortality ([4]; 100 mg/kg for 4 consecutive days): all the mice in the group were dead on days 5 to 7 after administration
CC(=O)OC[C@H]1O[C@@H](Oc2c(-c3ccc(O)c(O)c3)oc3cc(O)cc(O)c3c2=O)[C@H](OC(C)=O)[C@@H](OC(C)=O)[C@@H]1OC(C)=O [Compound 16, 2-(3′4′-Dihydroxy)-5,7-dihydroxy-3-β-D-tetraacetylglucosyl-4H-chromen-4-one]	128 (≈ 202 µM)	128 (≈ 202 µM)	128 (≈ 202 µM)	128 (≈ 202 µM)	> 128	> 128	> 128	> 19	109 to 110									
2-(3′,4′-Dihydroxy)-5,7-dihydroxy-3-β-D-(2″,3″-di-p-flurobenzyloxy)glucosyl-4H-chromen-4-one [Compound 15h]										2	8	8	2	2	8	8	strong antibacterial activities	
CN[C@H](CC(C)C)C(=O)N[C@H]1C(=O)N[C@@H](CC(N)=O)C(=O)N[C@H]2C(=O)N[C@H]3C(=O)N[C@H](C(=O)N[C@H](C(=O)O)c4cc(O)cc(O)c4-c4cc3ccc4O)[C@H](O)c3ccc(c(Cl)c3)Oc3cc2cc(c3O[C@@H]2O[C@H](CO)[C@@H](O)[C@H](O)[C@H]2O[C@H]2C[C@](C)(N)[C@H](O)[C@H](C)O2)Oc2ccc(cc2Cl)[C@H]1O [Vancomycin, vancomycin, reference compound]																		MIC (MRSA N315; MRSA, 24 h): 0.25 µg/mL (≈ 0.173 µM); MIC (MRSA OM481; MRSA, 24 h): 0.25 µg/mL (≈ 0.173 µM); MIC (MRSA OM58; MRSA, 24 h): 0.25 µg/mL (≈ 0.173 µM); MIC (MSSA FDA 209P; 24 h): 0.25 µg/mL (≈ 0.173 µM); MIC (VISA Mu50; VISA, 24 h): 8 µg/mL (≈ 5.52 µM); MIC (VRE FN-1; VRE, 24 h): > 128 µg/mL; MIC (VRE NCTC12201; 24 h): > 128 µg/mL; MIC [5]: 8 µg/mL (≈ 5.52 µM); MIC [6]: > 128 µg/mL; MIC [7]: > 128 µg/mL; MIC [8]: 0.25 µg/mL (≈ 0.173 µM); MIC [9]: 0.25 µg/mL (≈ 0.173 µM); MIC [10]: 0.25 µg/mL (≈ 0.173 µM); MIC [11]: 0.25 µg/mL (≈ 0.173 µM); MIC [12]: 0.25 µg/mL (≈ 0.173 µM); MIC [13]: 0.25 µg/mL (≈ 0.173 µM)
